Measured values: patent US20260042755A1, “GPR6 INVERSE AGONISTS” (MapLight Therapeutics, Inc., priority 2022, published 2026)

Assays:
Assay type in all cases: cell-based
GPR3 = target: T1, GPR3 (Homo sapiens, UniProt P46089); experiment: GPR3 antagonist functional cAMP assay (LANCE Ultra cAMP TR-FRET, CHO cells stably expressing GPR3)
T1 construct: expressed in transfected cells; host or cells: CHO cells
Procedure, shortened: (§1)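 cAMP quantified by TR-FRET immunoassay after 45 min compound treatment at 37° C of CHO cells stably expressing GPR3 or GPR6, in PDE-inhibitor (Ro 20-1724, 150 μM) buffer with 0.1% BSA. Data scaled between DMSO (0%) and reference compounds (100%); antagonist IC50 by 4-parameter logistic fit.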

GPR6 = target: T2, GPR6 (Homo sapiens, UniProt P46095); experiment: GPR6 antagonist functional cAMP assay (LANCE Ultra cAMP TR-FRET, CHO cells stably expressing GPR6)
T2 construct: expressed in transfected cells; host or cells: CHO cells
Procedure, shortened: as §1

hERG = target: T3, hERG (Homo sapiens, UniProt Q12809); experiment: hERG assay (whole-cell manual patch clamp, stably-transfected HEK293/hERG cells); settings: tail current, test concentrations 0.1-30 μM, read-out: hERG Assay GMean IC50
T3 construct: expressed in transfected cells; host or cells: HEK293
Protocol: Stably-transfected HEK293/hERG cells were seeded on poly-ornithine coated glass coverslip and incubated 3-24 h in 35 mm dishes before transferring to the recording chamber. The recording chamber on the stage of a Nikon inverted microscope is continuously perfused with extracellular solution (1-1.5 ml/min). Electrodes were pulled, polished and filled with intracellular solution (tip resistance ˜3-5MΩ). After establishing a tight seal (resistances 1GΩ) between pipette tip and cell membrane, a brief suction is applied to rupture the patched membrane to establish the whole-cell patch clamp configuration. Cells are voltage clamped at −80 mV. The cell was first depolarized to +40 mV for 2s to activate hERG current, and then clamped to −40 mV for 3s to record a tail current. Test articles in various concentrations controlled by a voltage command 8 pinch valve superfusion system were delivered to the proximity of the test cell to record hERG current changes under different conditions with recording done within 30 min.
Intracellular solution (in mM): 130 KCl, 1.0 MgCl2, 5.0 EGTA, 10 HEPES, 5.0 Mg-ATP; adjust pH to 7.25 with 1M KOH; osmolarity approximately at 280 mOsm. Extracellular solution (in mM): 137 NaCl, 1.8 CaCl2, 1.0 MgCl2, 4.0 KCl, 10 Glucose, 10 HEPES; adjust pH to 7.4 with 1 M NaOH; osmolarity approximately at 295 mOsm. Original compound was dissolved in 100% DMSO, then serial diluted with DMSO to respective 1000× of test concentration to make DMSO sub-stocks. The DMSO sub-stocks were diluted 1000 fold to testing solutions (0.1, 0.3, 1, 3, 10, and 30 μM) using extracellular solution. Rapid exposure to test compound was achieved by utilizing a multichannel solenoid-operated flow system. Testing compounds were sequentially applied in increasing order of concentrations after initial application of vehicle solution on EPC-10 manual patch clamping device with the following: • Amplifier: HEKA EPC-10 USB • Nikon Ti-S Inverted Microscope • MP-285/R micromanipulator system • DAD-8VCPP voltage command Pinch valve superfusion system • TMC Shock Absorption Platform • Peristaltic Pump • Sutter Puller • Vapor pressure osmometer • Temperature controller

[1] = CHO cells stably expressing GPR3, cAMP assay
[2] = CHO cells stably expressing GPR6, cAMP assay
[3] = CHO cells stably expressing GPR3, cAMP assay (Example 24)
[4] = CHO cells stably expressing GPR6, cAMP assay (Example 24)

T2 sequence (P46095 whole entry): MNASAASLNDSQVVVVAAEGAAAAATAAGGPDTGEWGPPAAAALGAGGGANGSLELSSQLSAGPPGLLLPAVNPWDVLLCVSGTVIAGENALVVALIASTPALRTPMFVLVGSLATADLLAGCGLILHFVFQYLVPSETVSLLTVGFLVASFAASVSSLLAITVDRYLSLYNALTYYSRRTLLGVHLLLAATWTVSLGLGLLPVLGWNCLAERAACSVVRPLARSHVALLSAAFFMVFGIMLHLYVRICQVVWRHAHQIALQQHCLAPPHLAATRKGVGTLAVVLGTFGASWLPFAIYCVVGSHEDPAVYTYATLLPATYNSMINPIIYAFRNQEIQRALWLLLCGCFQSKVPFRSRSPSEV
T3 sequence (Q12809 whole entry): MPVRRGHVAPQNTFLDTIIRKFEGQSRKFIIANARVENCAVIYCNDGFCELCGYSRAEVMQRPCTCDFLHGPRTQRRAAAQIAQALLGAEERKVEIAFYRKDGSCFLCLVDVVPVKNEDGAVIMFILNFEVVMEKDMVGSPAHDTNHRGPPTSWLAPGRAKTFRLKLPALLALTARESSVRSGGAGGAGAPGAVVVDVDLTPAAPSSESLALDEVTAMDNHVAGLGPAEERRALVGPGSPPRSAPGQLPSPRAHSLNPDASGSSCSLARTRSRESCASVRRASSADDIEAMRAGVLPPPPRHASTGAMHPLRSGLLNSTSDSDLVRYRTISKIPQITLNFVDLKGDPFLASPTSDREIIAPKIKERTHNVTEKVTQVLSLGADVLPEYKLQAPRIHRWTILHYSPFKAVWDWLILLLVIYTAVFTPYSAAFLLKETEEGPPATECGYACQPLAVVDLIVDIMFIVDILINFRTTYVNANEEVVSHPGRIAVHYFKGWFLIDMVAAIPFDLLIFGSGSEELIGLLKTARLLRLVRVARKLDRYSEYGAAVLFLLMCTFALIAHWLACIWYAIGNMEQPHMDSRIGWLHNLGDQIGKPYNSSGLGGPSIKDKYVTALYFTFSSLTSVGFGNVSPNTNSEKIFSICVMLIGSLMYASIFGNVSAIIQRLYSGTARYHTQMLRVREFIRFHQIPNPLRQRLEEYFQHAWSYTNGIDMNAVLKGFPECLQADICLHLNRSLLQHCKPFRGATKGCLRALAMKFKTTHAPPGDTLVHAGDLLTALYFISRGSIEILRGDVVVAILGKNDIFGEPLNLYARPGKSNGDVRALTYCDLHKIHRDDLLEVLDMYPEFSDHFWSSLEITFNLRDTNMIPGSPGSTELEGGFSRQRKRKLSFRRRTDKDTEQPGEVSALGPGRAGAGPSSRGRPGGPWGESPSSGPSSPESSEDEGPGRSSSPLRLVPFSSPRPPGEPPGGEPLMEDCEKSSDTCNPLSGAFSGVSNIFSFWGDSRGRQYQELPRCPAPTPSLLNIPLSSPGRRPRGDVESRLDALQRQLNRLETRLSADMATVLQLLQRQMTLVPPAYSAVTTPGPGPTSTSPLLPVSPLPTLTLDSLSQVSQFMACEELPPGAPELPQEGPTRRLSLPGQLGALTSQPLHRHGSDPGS
T1 sequence (P46089 whole entry, species assumed): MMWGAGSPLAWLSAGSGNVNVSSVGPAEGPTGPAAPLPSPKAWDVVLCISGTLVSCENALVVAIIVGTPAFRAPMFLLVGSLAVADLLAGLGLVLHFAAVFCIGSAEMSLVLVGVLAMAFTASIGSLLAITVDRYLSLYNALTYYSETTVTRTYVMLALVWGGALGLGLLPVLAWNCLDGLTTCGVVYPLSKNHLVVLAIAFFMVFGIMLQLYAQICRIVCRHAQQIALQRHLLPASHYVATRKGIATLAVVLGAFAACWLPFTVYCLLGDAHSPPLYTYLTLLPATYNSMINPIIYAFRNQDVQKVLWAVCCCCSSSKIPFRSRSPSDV

Compound	IC50 (GPR3; procedure of Example 24)	IC50 (GPR6; procedure of Example 24)	IC50 (hERG)	IC50 (GPR3; [3])	IC50 (GPR6; [4])	also measured
CC(C)(O)C(O)c1cc2nc(-c3cnn(CF)c3)c(N3CCN(Cc4ccccc4F)CC3)nc2cn1 (single isomer, unassigned) [Compound 707]	1 to 30 µM	0.1 to 1 µM	> 30 µM	–	–	–
CC(C)(O)[C@](C)(O)c1cc2nc(-c3cnn(CF)c3)c(N3CCN(Cc4ccccc4F)CC3)nc2cn1 (single isomer, unassigned) [Compound 716]	1 to 30 µM	0.1 to 1 µM	24.3 µM	–	–	–
CCn1cc(-c2nc3cnc([C@H](O)C(C)(C)O)cc3nc2N2CCN(Cc3ccc(F)cc3F)CC2)cn1 (single isomer, unassigned) [Compound 575]	–	–	21.7 µM	–	–	IC50 (GPR3; [1]): 1 to 30 µM; IC50 (GPR6; [2]): < 0.1 µM
CC(C)(O)[C@@H](O)c1cc2nc(N3CCN(Cc4ccc(F)cc4F)CC3)c(-c3cnn(C4CC4)c3)nc2cn1 (single isomer, unassigned) [Compound 577]	–	–	13.6 µM	–	–	IC50 (GPR3; [1]): 1 to 30 µM; IC50 (GPR6; [2]): 0.1 to 1 µM
CC(=O)N1CCc2nc(N3CCC(Oc4ccc(F)cc4F)CC3)c(-c3cnc4n3CCN(C)C4)nc2C1 [Compound 90, 1-(2-(4-(2,4-difluorophenoxy)piperidin-1-yl)-3-(7-methyl-5,6,7,8-tetrahydroimidazo[1,2-a]pyrazin-3-yl)-7,8-dihydropyrido[3,4-b]pyrazin-6(5H)-yl)ethan-1-one]	–	–	–	1 to 30 µM	1 to 30 µM	–
CCn1cc(-c2nc3c(nc2N2CCC(Oc4ccc(F)cc4F)CC2)CCN(C(=O)C(O)CO)C3)cn1 (stereo not shown) [Compound 484, 1-{2-[4-(2,4-difluorophenoxy)piperidin-1-yl]-3-(1-ethyl-1H-pyrazol-4-yl)-5H,6H,7H,8H-pyrido[3,4-b]pyrazin-6-yl}-2,3-dihydroxypropan-1-one]	–	–	–	1 to 30 µM	0.1 to 1 µM	–
Cn1cc(-c2nc3cnc(C(C)(O)C(C)(C)O)cc3nc2N2CCC(Oc3ccc(F)cc3F)CC2)cn1 (stereo not shown) [Compound 434, 2-(2-(4-(2,4-difluorophenoxy)piperidin-1-yl)-3-(1-methyl-1H-pyrazol-4-yl)pyrido[3,4-b]pyrazin-7-yl)-3-methylbutane-2,3-diol]	–	–	–	1 to 30 µM	0.1 to 1 µM	–
Cn1cc(-c2nc3cnc(O)cc3nc2N2CCC(Oc3ccc(F)cc3F)CC2)cn1 [Compound 395, 2-(4-(2,4-difluorophenoxy)piperidin-1-yl)-3-(1-methyl-1H-pyrazol-4-yl)pyrido[3,4-b]pyrazin-7-ol]	–	–	–	1 to 30 µM	1 to 30 µM	–
CC(C)(O)[C@H](O)c1cc2nc(N3CCC(=Cc4ccc(F)cc4F)CC3)c(-c3cnn(CF)c3)nc2cn1 (single isomer, unassigned) [Compound 784]	1 to 30 µM	< 0.1 µM	–	–	–	–
